Measured values reported in patent US20260355165A1, “2,3,4,9-TETRAHYDRO-1H-PYRIDO[3,4-B]INDOLE DERIVATIVES AS ESTROGEN RECEPTOR MODULATORS FOR THE TREATMENT OF CANCER” (Olema Pharmaceuticals, Inc., priority 2022, published 2026).

molecular target: T1, estrogen receptor (Homo sapiens, UniProt P03372); experiment: AP assay (alkaline phosphatase activity in ECC-1 cells), agonist mode (absence of E2) and antagonist mode (presence of 500 pM E2); assay type: cell-based; settings: 3 days, AP activity normalized to 500 pM E2 alone, agonist and antagonist mode combined
T1 construct: endogenous in cells; host or cells: ECC-1 cells
T1 sequence (P03372 1-595): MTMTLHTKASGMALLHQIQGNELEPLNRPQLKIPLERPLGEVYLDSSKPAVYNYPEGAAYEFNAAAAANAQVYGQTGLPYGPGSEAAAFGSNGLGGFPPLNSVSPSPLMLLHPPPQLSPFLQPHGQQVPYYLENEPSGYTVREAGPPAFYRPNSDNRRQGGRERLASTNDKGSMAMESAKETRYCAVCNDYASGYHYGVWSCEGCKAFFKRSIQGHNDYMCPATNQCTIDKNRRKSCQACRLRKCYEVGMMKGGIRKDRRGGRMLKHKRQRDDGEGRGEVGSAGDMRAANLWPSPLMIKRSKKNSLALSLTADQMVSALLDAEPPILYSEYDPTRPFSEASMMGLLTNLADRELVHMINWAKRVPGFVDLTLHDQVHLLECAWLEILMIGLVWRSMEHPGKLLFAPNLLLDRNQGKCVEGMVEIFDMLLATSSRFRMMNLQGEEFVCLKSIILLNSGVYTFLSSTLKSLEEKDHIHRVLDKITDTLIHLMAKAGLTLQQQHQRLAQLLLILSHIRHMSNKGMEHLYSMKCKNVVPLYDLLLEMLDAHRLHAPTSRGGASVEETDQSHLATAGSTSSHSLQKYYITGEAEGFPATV
Protocol: ECC-1 cells were trypsinized and resuspended in hormone-depleted media and plated at a density of 15 k cells per well into a 96-well plate for at least 4 hours. Cells were treated with test compounds in the absence of E2 (for agonist mode) or in the presence of 500 pM E2 (for antagonist mode) for 3 days and plates were subsequently frozen at −80 °C. Thawed plates were incubated with a chromogenic substrate of AP, p-nitrophenyl phosphate (Thermo Fisher Scientific), for 40 minutes at 42 °C, and absorbances were read at 405 nm. AP activity was normalized to the activity of 500 pM E2 alone.
The compound numbers correspond to the compound numbers of Table 1 and 2. Compounds having an activity designated as “+” provided estrogen receptor agonism having (i) at least 80% increase in the E2-normalized signal in the AP assay (agonist mode) and (ii) no more than 80% reduction in the E2-normalized signal in the AP assay (antagonist mode). Compounds having an activity designated as “++” provided estrogen receptor antagonism having (i) between 10% and 80% increase in the E2-normalized signal in the AP assay (agonist mode) and (ii) between 10% and 80% reduction in the E2-normalized signal in the AP assay (antagonist mode).

Row | Compound | Activity (estrogen receptor modulation, e.g., agonism and antagonism)
1 | C[C@@H]1Cc2c([nH]c3ccccc23)[C@@H](c2n[nH]c3cc(CN4CCC45CC(F)(F)C5)ccc23)N1CC(C)(C)F [Compound I-34, (1S,3R)-1-[6-[(6,6-difluoro-1-azaspiro[3.3]heptan-1-yl)methyl]-1H-indazol-3-yl]-2-(2-fluoro-2-methyl-propyl)-3-methyl-1,3,4,9-tetrahydropyrido[3,4-b]indole] | + (estrogen receptor agonism having (i) at least 80% increase in the E2-normalized signal in the AP assay (agonist mode) and (ii) no more than 80% reduction in the E2-normalized signal in the AP assay (antagonist mode))
2 | C[C@@H]1Cc2c([nH]c3ccccc23)[C@@H](c2n[nH]c3cc(CN4CC(CF)C4)ccc23)N1CC(F)F [Compound I-36, (1S,3R)-2-(2,2-difluoroethyl)-1-(6-((3-(fluoromethyl)azetidin-1-yl)methyl)-1H-indazol-3-yl)-3-methyl-2,3,4,9-tetrahydro-1H-pyrido[3,4-b]indole] | ++ (estrogen receptor antagonism having (i) between 10% and 80% increase in the E2-normalized signal in the AP assay (agonist mode) and (ii) between 10% and 80% reduction in the E2-normalized signal in the AP assay (antagonist mode))
3 | CC1CN(Cc2ccc3c([C@@H]4c5[nH]c6ccccc6c5C[C@@H](C)N4CC(F)F)n[nH]c3c2)C1 [Compound I-37, (1S,3R)-2-(2,2-difluoroethyl)-3-methyl-1-(6-((3-methylazetidin-1-yl)methyl)-1H-indazol-3-yl)-2,3,4,9-tetrahydro-1H-pyrido[3,4-b]indole] | ++ (estrogen receptor antagonism having (i) between 10% and 80% increase in the E2-normalized signal in the AP assay (agonist mode) and (ii) between 10% and 80% reduction in the E2-normalized signal in the AP assay (antagonist mode))
4 | C[C@@H]1Cc2c([nH]c3ccccc23)[C@@H](c2n[nH]c3cc(CN4CC5(COC5)C4)ccc23)N1CC(F)F [Compound I-39, 6-((3-((1S,3R)-2-(2,2-difluoroethyl)-3-methyl-2,3,4,9-tetrahydro-1H-pyrido[3,4-b]indol-1-yl)-1H-indazol-6-yl)methyl)-2-oxa-6-azaspiro[3.3]heptane] | ++ (estrogen receptor antagonism having (i) between 10% and 80% increase in the E2-normalized signal in the AP assay (agonist mode) and (ii) between 10% and 80% reduction in the E2-normalized signal in the AP assay (antagonist mode))
5 | C[C@@H]1Cc2c([nH]c3ccccc23)[C@@H](c2ccc3[nH]c(CN4CC(CF)C4)cc3c2)N1CC(C)(C)F [Compound I-40, (1R,3R)-1-[2-[[3-(fluoromethyl)azetidin-1-yl]methyl]-1H-indol-5-yl]-2-(2-fluoro-2-methyl-propyl)-3-methyl-1,3,4,9-tetrahydropyrido[3,4-b]indole] | +++ (estrogen receptor antagonism (i) with pIC50 greater than 7.5 and at least a 10% reduction in the E2-normalized signal in the AP assay (antagonist mode); and (ii) no more than 10% increase in E2-normalized signal in the AP assay (agonist mode))
6 | C[C@@H]1Cc2c([nH]c3ccccc23)[C@@H](c2cc3cc(CN4CC(CF)C4)ccc3[nH]2)N1CC(C)(C)F [Compound I-41, (1R,3R)-1-[5-[[3-(fluoromethyl)azetidin-1-yl]methyl]-1H-indol-2-yl]-2-(2-fluoro-2-methyl-propyl)-3-methyl-1,3,4,9-tetrahydropyrido[3,4-b]indole] | ++ (estrogen receptor antagonism having (i) between 10% and 80% increase in the E2-normalized signal in the AP assay (agonist mode) and (ii) between 10% and 80% reduction in the E2-normalized signal in the AP assay (antagonist mode))
7 | CC1CN(Cc2cc3cc([C@@H]4c5[nH]c6ccccc6c5C[C@@H](C)N4CC(C)(C)F)ccc3[nH]2)C1 [Compound I-42, (1R,3R)-2-(2-fluoro-2-methyl-propyl)-3-methyl-1-[2-[(3-methylazetidin-1-yl)methyl]-1H-indol-5-yl]-1,3,4,9-tetrahydropyrido[3,4-b]indole] | ++ (estrogen receptor antagonism having (i) between 10% and 80% increase in the E2-normalized signal in the AP assay (agonist mode) and (ii) between 10% and 80% reduction in the E2-normalized signal in the AP assay (antagonist mode))
8 | C[C@@H]1Cc2c([nH]c3ccccc23)[C@@H](c2ccc3[nH]c(CN4CC5CC5C4)cc3c2)N1CC(C)(C)F (stereo partly drawn) [Compound I-43, (1R,3R)-1-[2-(3-azabicyclo[3.1.0]hexan-3-ylmethyl)-1H-indol-5-yl]-2-(2-fluoro-2-methyl-propyl)-3-methyl-1,3,4,9-tetrahydropyrido[3,4-b]indole] | + (estrogen receptor agonism having (i) at least 80% increase in the E2-normalized signal in the AP assay (agonist mode) and (ii) no more than 80% reduction in the E2-normalized signal in the AP assay (antagonist mode))
9 | C[C@@H]1Cc2c([nH]c3ccccc23)[C@@H](c2ccc3[nH]c(CN4CC5(CCC5)C4)cc3c2)N1CC(C)(C)F [Compound I-44, (1R,3R)-1-[2-(2-azaspiro[3.3]heptan-2-ylmethyl)-1H-indol-5-yl]-2-(2-fluoro-2-methyl-propyl)-3-methyl-1,3,4,9-tetrahydropyrido[3,4-b]indole] | ++ (estrogen receptor antagonism having (i) between 10% and 80% increase in the E2-normalized signal in the AP assay (agonist mode) and (ii) between 10% and 80% reduction in the E2-normalized signal in the AP assay (antagonist mode))
10 | C[C@@H]1Cc2c([nH]c3ccccc23)[C@@H](c2ccc3[nH]c(CN4CC(CF)C4)cc3c2)N1CC(F)(F)CO [Compound I-45, 2,2-difluoro-3-[(1R,3R)-1-[2-[[3-(fluoromethyl)azetidin-1-yl]methyl]-1H-indol-5-yl]-3-methyl-1,3,4,9-tetrahydropyrido[3,4-b]indol-2-yl]propan-1-ol] | +++ (estrogen receptor antagonism (i) with pIC50 greater than 7.5 and at least a 10% reduction in the E2-normalized signal in the AP assay (antagonist mode); and (ii) no more than 10% increase in E2-normalized signal in the AP assay (agonist mode))
11 | CC1CN(Cc2cc3cc([C@@H]4c5[nH]c6ccccc6c5C[C@@H](C)N4CC(F)(F)CO)ccc3[nH]2)C1 [Compound I-46, 2,2-difluoro-3-[(1R,3R)-3-methyl-1-[2-[(3-methylazetidin-1-yl)methyl]-1H-indol-5-yl]-1,3,4,9-tetrahydropyrido[3,4-b]indol-2-yl]propan-1-ol] | +++ (estrogen receptor antagonism (i) with pIC50 greater than 7.5 and at least a 10% reduction in the E2-normalized signal in the AP assay (antagonist mode); and (ii) no more than 10% increase in E2-normalized signal in the AP assay (agonist mode))
12 | C[C@@H]1Cc2c([nH]c3ccccc23)[C@@H](c2ccc3[nH]c(CN4CC[C@H](F)C4)cc3c2)N1CC(C)(C)F [Compound I-47, (1R,3R)-2-(2-fluoro-2-methyl-propyl)-1-[2-[[(3S)-3-fluoropyrrolidin-1-yl]methyl]-1H-indol-5-yl]-3-methyl-1,3,4,9-tetrahydropyrido[3,4-b]indole] | + (estrogen receptor agonism having (i) at least 80% increase in the E2-normalized signal in the AP assay (agonist mode) and (ii) no more than 80% reduction in the E2-normalized signal in the AP assay (antagonist mode))
13 | C[C@@H]1Cc2c([nH]c3ccccc23)[C@@H](c2ccc3[nH]c(CN4CC(C(C)(C)O)C4)cc3c2)N1CC(C)(C)F [Compound I-48, 2-[1-[[5-[(1R,3R)-2-(2-fluoro-2-methyl-propyl)-3-methyl-1,3,4,9-tetrahydropyrido[3,4-b]indol-1-yl]-1H-indol-2-yl]methyl]azetidin-3-yl]propan-2-ol] | + (estrogen receptor agonism having (i) at least 80% increase in the E2-normalized signal in the AP assay (agonist mode) and (ii) no more than 80% reduction in the E2-normalized signal in the AP assay (antagonist mode))
14 | C[C@@H]1Cc2c([nH]c3ccccc23)[C@@H](c2ccc3[nH]c(CN4CC5(C4)CC(O)(C(F)F)C5)cc3c2)N1CC(C)(C)F [Compound I-49, 6-(difluoromethyl)-2-[[5-[(1R,3R)-2-(2-fluoro-2-methyl-propyl)-3-methyl-1,3,4,9-tetrahydropyrido[3,4-b]indol-1-yl]-1H-indol-2-yl]methyl]-2-azaspiro[3.3]heptan-6-ol] | + (estrogen receptor agonism having (i) at least 80% increase in the E2-normalized signal in the AP assay (agonist mode) and (ii) no more than 80% reduction in the E2-normalized signal in the AP assay (antagonist mode))
